The values that follow come from patent publication US20260274859A1, “FUSED POLYCYCLIC DERIVATIVE AND USE THEREOF” (ZHEJIANG HISUN PHARMACEUTICAL CO., LTD., priority 2023, published 2026).

Common to all, as to format: cell-based
The test system of one test is A549 cells. Put plainly: Inhibition of proliferation of A549 cells (CCK8 or CTG). The note with it: Homo sapiens, maximum concentration 10 μM, 5-fold dilution. As for the experimental part: (1) A549 cells in the logarithmic growth phase were digested with 0.25% trypsin and counted. The cells were inoculated into 96-well plates at 2000 cells per well, and the 96-well plates were placed in an incubator containing 5% CO2 at 37° C. for 12 h of culture.
(2) Six concentration gradients for the compounds to be tested (with the maximum drug concentration of 10 μM and 5-fold dilution) were set. After the cells adhered to the wall, the compounds to be tested were serially diluted with DMSO, then diluted with 1640 complete medium to reach a concentration 1000 times the final concentration, and added to the corresponding wells.
(§1) (3) After the corresponding concentrations of the compounds to be tested were added, the plates were incubated in an incubator with 5% carbon dioxide at 37° C., and then the cell viability rate at each drug concentration was determined by CCK8 or CTG method. In addition, the IC50 value was calculated.

Another test concerns HL60 cells. In words: Inhibition of proliferation of HL60 tumor cells (CCK8 or CTG). The note with it: Homo sapiens, HL-60. As for the experimental part:
The effect of the compound of the present disclosure on the proliferation of tumor cells was determined using the following method. The HL60 cells used in the method were purchased from Nanjing Kebai Biotechnology Co., Ltd., and the kit was the Cell Counting Kit-8/CCK-8 kit of MCE Company (article number: HY—K0301, specification: 3000T).
(1) HL60 cells in logarithmic growth phase were prepared into a cell suspension. The cell suspension was added into a 96-well plate at 5000 cells/well. The 96-well cell culture plate was placed in a CO2 incubator for 4 h of incubation of suspended cells or for 12 h of incubation of adherent cells.
(2) The compounds to be tested were diluted with IMDM complete culture medium to reach a concentration twice the testing concentration, and added to the corresponding wells.
as §1

A further test relates to HK-2 cells. Put plainly: Inhibition of proliferation of HK-2 cells (normal cells; CCK8 or CTG). The following applies: Homo sapiens, maximum concentration 10 μM, 5-fold dilution. As to the method: (1) HK-2 cells in the logarithmic growth phase were digested with 0.25% trypsin and counted. The cells were inoculated into 96-well plates at 2000 cells per well, and the 96-well plates were placed and cultured in an incubator containing 5% CO2 at 37° C. for 12 h.
(2) Six concentration gradients for the compound to be tested (with the maximum drug concentration of 10 μM and 5-fold dilution) were set. After the cells adhered to the wall, the compounds to be tested were serially diluted with DMSO, then diluted with 1640 complete medium to reach a concentration 1000 times the final concentration, and added to the corresponding wells.
as §1

Consider `CC(C)NCCNC(=O)Nc1sc2c(c1-c1nc3ccccc3s1)CCNC2` [Compound 077, 1-(3-(benzo[d]thiazol-2-yl)-4,5,6,7-tetrahydrothieno[2,3-c]pyridin-2-yl)-3-(2-(isopropylamino)ethyl) urea], for which the results for the IC50 in the test on A549 cells, in the test on HL60 cells and in the test with HK-2 cells were 43.4 nM, less than 150 nM and 1260 nM, respectively.

For `CC(C)(C)NC1CC(C(=O)Nc2sc3c(c2-c2nc4ccc(C5=CCNCC5)cc4s2)CCNC3)C1` (stereo not drawn) [Compound 120, 3-(tert-butylamino)-N-(3-(6-(1,2,3,6-tetrahydropyridin-4-yl)benzo[d]thiazol-2-yl)-4,5,6,7-tetrahydrothieno [2,3-c]pyridin-2-yl) cyclobutane-1-carboxamide], the IC50 in the test on A549 cells is 2.77 nM; with HL60 cells it was less than 150 nM; in the test on HK-2 cells, 760 nM.

As to `COCCNCCC(=O)Nc1sc2c(c1-c1nc3cc(-n4cnc(C)c4)ccc3s1)CCNC2` [Compound a, reference compound], the IC50 in the test on A549 cells is 74 nM; in the test with HL60 cells, 150 to 1500 nM; in the test with HK-2 cells, 520 nM.

Usually IC50 stands for the concentration at which inhibition is half-maximal.
